These results are taken from patent US6469055B2, “Compositions and methods for treatment of neurological disorders and neurodegenerative diseases” (Massachusetts Institute of Technology, priority 1996, dated 2002).

Entries after “also recorded” stand apart in the source; their conditions may differ.

The conditions of experiment [1]: 100-150 mg indomethacin, 6 months, mild or moderately impaired Alzheimer's disease patients; cited from earlier work.
Experiment [2] deals with PI hydrolysis. Nature of the experiment: PI hydrolysis in cultured astrocytes. The class given is cell-based, rat. Particulars: NE 50 μM, 1 h. The procedure:
(§1) Assays of PI hydrolysis are conducted as previously reported. Also, measurements of APPs are conducted as previously reported.

Experiment [3] deals with cellular cAMP levels. Nature of the experiment: cAMP assay in cultured astrocytes. Type of experiment: cell-based, rat. As to the method: In brief, after aspirating the medium and rinsing twice with 1 ml ice cold PBS, the cells were scraped in 0.8 ml ice cold ethanol and sonicated. […] After resuspension in 120 μl Tris/EDTA buffer, two duplicate samples of 50 μl each were mixed with the binding protein, [8-^3H] adenosine 3′, 5′-cyclic phosphate tracer and incubated at 2-4° C. for 2 h. A charcoal suspension (100 μl) was added to the samples before centrifugation and 200 μl of the supernatant were removed for. scintillation counting. The amount of cyclic AMP (pmol/mg protein) was estimated by comparing to known standards, and normalized to the amounts of whole cell protein as determined by the bicinchoninic acid assay (Sigma).

Experiment [4] has as its system APP mRNA. The experiment in a line: APP mRNA, Northern blot, cultured cortical astrocytes.
Method: Pharmacological manipulations are performed in serum-free media on 7-14 DIV confluent astrocytes.
Total RNA from astrocytes grown on 100 mm dishes is extracted by the acid guanidium thiocyanate-phenol-chloroform method. […] In brief, the medium was aspirated and the cells were scraped in 1 mL of TRI Reagent. After incubation for 15 min at room temperature, 0.2 ml chloroform was added, mixed vigorously with TRI Reagent and the mixture was stored for another 15 min at room temperature. After centrifugation at 12,000 g for 15 min, 0.5 ml isopropanol was added to the aqueous phase of the mixture to precipitate RNA. The RNA pellet collected by centrifugation (12,000 g, 15 min at 4° C.) was washed with 70% ethanol. once and solubilized in an appropriate amount of Formazol (Molecular Research Center, Cincinnati, Ohio). […] RNA was blotted onto Hybond polyvinyl membranes by overnight capillary transfer and fixed onto the membranes by UV light illumination. […] Membranes were dried and exposed to Kodak X-ray film for 24-48 h with an Amersham enhancer sheet. The relative amounts of mRNA obtained by hybridization were estimated using densitometric analysis of autoradiographs. The levels of APP mRNA were normalized to the amounts of G3PDH mRNA and expressed as a ratio to the levels of untreated, control cells.
In experiment [5] the test system is glial fibrillary acidic protein (GFAP). Nature of the experiment: GFAP protein in cultured astrocytes, Western blot. The class given is cell-based, rat.
Method: To detect cell-associated protein (APP or GFAP), astrocytes from 35 mm dishes are scraped in lysis buffer (60 mM Tris/HCl, 4% SDS, 20% glycerol, 1 mM dithiothreitol), ultrasonicated and boiled for 5 min. […] Bromphenol blue (0.1%) is added to each sample and equal amounts of protein (˜75 mg/lane) are loaded on 10% SDS-polyacrylamide gels.
(§3) The amount of media or cell protein loaded for sodium dodecyl sulfate-polyacrylamide gel electrophoresis (10-20% SDS PAGE; Bio-Rad) was normalized for the amount of protein per sample. […] After 2×10 min rinses in TBST, the membranes were incubated in TBST containing an appropriate antibody. Monoclonal antibodies 22C11 and GFAP (both from Boehringer-Mannheim) were used to detect the N-terminus of APP and glial fibrillary acidic protein respectively; antisera R37 and R98 (gifts of Dr. F. Kametani, Tokyo Institute of Psychiatry) were used to detected the C-terminus and KPI motifs of APP respectively; antiserum C8 (gift of Dr. D. Selkoe, Women's Hospital, Harvard Medical School, Cambridge, Mass.) was used to detect the C-terminus of APP.
After an overnight incubation, membranes were rinsed in TBST before being treated for 1h with a peroxidase-linked secondary antibody. After several rinses in TBST, protein bands were visualized on Kodak X-AR films by an enhanced chemiluminescence method (Amersham). […]
In experiment [6] the test system is astrocytes. Nature of the experiment: Process formation of cultured astrocytes. The class given is cell-based, rat.
Experiment [7] has as its system APP holoprotein. The experiment in a line: Cell-associated APP (APP holoprotein), Western blot, cultured cortical astrocytes.
Method: Astrocytes are isolated from cortices from postnatal rats. […] In brief, dissected cortices were dissociated by trypsinization and trituration through a flame-polished Pasteur pipette. Cells were plated onto poly-L-lysine coated 35- or 100 mm culture dishes at densities of about 10-25 cells/mm^2. […] Media are changed twice weekly. […] Pharmacological manipulations are performed in serum-free media on 7-14 DIV confluent astrocytes.
To detect cell-associated protein (APP or GFAP), astrocytes from 35 mm dishes are scraped in lysis buffer (60 mM Tris/HCl, 4% SDS, 20% glycerol, 1 mM dithiothreitol), ultrasonicated and boiled for 5 min. The total amount of cell protein per dish, estimated using the bicinchoninic acid assay, is not altered by pharmacological treatments. Bromphenol blue (0.1%) is added to each sample and equal amounts of protein (˜75 mg/lane) are loaded on 10% SDS-polyacrylamide gels.
as §3
After an overnight incubation, membranes were rinsed in TBST before being treated for 1h with a peroxidase-linked secondary antibody. After several rinses in TBST, protein bands were visualized on Kodak X-AR films by an enhanced chemiluminescence method (Amersham). Optical densities of the protein bands were quantitated by laser scanning densitometry (LKB, Bromma, Sweden), and normalized to the densities of those bands generated under control conditions.
The test system of experiment [8] is APP mRNA. As to conditions: dibutyryl cAMP in serum-containing medium, rat glioma cells; cited from earlier work.
Experiment [9] has as its system secreted APP (APPs). Nature of the experiment: APPs secretion into the media of cultured cortical astrocytes, Western blot. The class given is cell-based, rat. As to the method: Astrocytes are isolated from cortices from postnatal rats. […] Media are changed twice weekly.
To detect secreted APP, culture media was collected after drug treatments and phenylmethylsulfonyl fluoride was added to a final concentration of 2 mM. The media samples were then applied to Sephadex PD-10 desalting columns (Pharmacia) and eluted with distilled water. Column eluates were frozen and dried by vacuum centrifugation. The lyophilized proteins were reconstituted in 25 μL water followed by 25 μL of 2X Laemmli gel loading buffer, and boiled for 5 min.
as §1
A general note: In western blotting, separated proteins are transferred to a membrane and probed.

Experiment [10] deals with APP synthesis. Nature of the experiment: APP synthesis (APP mRNA and holoprotein) in cultured cortical astrocytes. Particulars: PG E2 10 μM, 6 or 12 h. Type of experiment: cell-based, rat.
Experiment [11] has as its system secreted APP (APPs). Nature of the experiment: APPs secretion from cultured neurons. The class given is cell-based. Particulars: DFP. The text has this: (§2) Treatment of cultured astroyctes with DFU (A) or of cultured neurons with DFP (B) promotes APPs secretion and decreases the levels of amyloidogenic APP holoprotein in cultured.
In experiment [12] the test system is APP holoprotein. The experiment in a line: APP holoprotein in cultured neurons. Type of experiment: cell-based. Particulars: DFP.
Source text: as §2

The test system of experiment [13] is serotonin release. The experiment in a line: Serotonin release in the striatum by microdialysis. The class given is in vivo, rat. As to conditions: rats, chronic treatment with PCA.
Experiment [14] has as its system APP holoprotein. Nature of the experiment: Brain APP holoprotein in rats injected with p-chloroamphetamine (PCA) with or without aspirin. As to conditions: rats injected with PCA; striatum or hippocampus. Type of experiment: in vivo, rat. The text has this: Neuronal injury can stimulate prostaglandin production., and thereby stimulate APP overexpression. We injected rats with para-chloroamphetamine (PCA), a neurotoxin which causes a loss of serotoninergic terminals in the brain.

Where [15] appears, read: DFU or DFP 10^-9-10^-3 M, 1 h, cultured astrocytes.

As to `COc1ccc2c(c1)c(CC(=O)O)c(C)n2C(=O)c1ccc(Cl)cc1` [indomethacin], the “cognitive decline versus placebo, battery of cognitive tests” value in experiment [1] was “appeared to protect”.

For the molecule `NC[C@H](O)c1ccc(O)c(O)c1` [NE, norepinephrine], the PI hydrolysis entry in [2] was “significantly increased”. Besides, in experiment [3] (NE 50 μM, 1 h), the cAMP formation result is “significantly increased”. Moreover, the “APP mRNA levels versus untreated cells” value in experiment [4] (24 h, NE 50 or 100 μM, isoproterenol 50 μM, Northern blot) was “about 1.7 fold”. In addition, the “APP mRNA level versus NE concentration” value in [4] (NE 50-400 μM) was “do not increase linearly”. Also, the “APP mRNA, of untreated cells” value in experiment [4] (NE 50 or 100 μM, isoproterenol 50 μM) turned out to be 180%. Moreover, the “glial fibrillary acidic protein immunoreactivity” value in [5] (8Br-cAMP or NE) is “increase”. In experiment [6], the “process formation in astrocytes” value is listed as “increase”. Moreover, in experiment [7] (8Br-cAMP or NE, antibodies 22C11 and R37), the “APP holoprotein in cell lysates, of that seen in untreated cells” value worked out at 200%. The “amount of cell-associated APP holoprotein relative to untreated cells” value in experiment [7] (NE 50 μM, about 24 h, Western blot) is on record as roughly 1.7 fold. Further, the “cell-associated APP relative to untreated control cells” value in [7] (NE 50 μM, mAb22C11, p<0.05) is on record as “significantly more”. The “APP holoprotein level versus NE concentration” value in experiment [7] (NE 50-400 μM) is “do not increase linearly”.

As to `CCCC(=O)Nc1ncnc2c1ncn2[C@@H]1O[C@@H]2COP(=O)(O)O[C@H]2[C@H]1OC(=O)CCC` [dibutyryl cAMP], the “APP mRNA” value in experiment [8] is reported as “increased”.

Take `CCCCC[C@H](O)/C=C/[C@H]1[C@H](O)CC(=O)[C@@H]1C/C=C\CCCC(=O)O` [PG E2, prostaglandin E2]: the entries for the “cellular cAMP levels compared to untreated cells” value in [3] (1 μg PG E2 (so in the source)), in experiment [3] (10 μg PG E2 (so in the source)) and in [3] (100 μg PG E2 (so in the source)) were 27 fold, 106 fold and 227 fold, respectively. In addition, in experiment [3] (PG E2 0.1 μM), the cAMP production entry was “did not stimulate”. Also, in [3] (PG E2 1, 10 or 100 μM), the “cAMP versus PG E2 concentration” value is on record as “Concentration-dependent elevations”. Besides, the “effect on APP mRNA” value in [4] (PG E2 0.1 μM) was “did not significantly alter; also recorded: not 0.1 μM PG E2”. Moreover, in experiment [4] (PG E2 1, 10 or 100 μM, 24 h), the “astrocytic APP mRNA relative to untreated cells” value was “significantly increased; also recorded: stimulated increases”. In addition, the “levels of GFAP” value in experiment [5] (PG E2 treatment) is “increased”. For the same molecule, in experiment [6], the “process formation in astrocytes” value is recorded as “induced”. The “APP secreted in the media” value in experiment [9] (PG E2 1, 10 or 100 μM, 24 h, mAb 22C11, R37 or C8) is on record as “increased”. Also, the “APP holoprotein (~130 kD) in the media” value in experiment [9] (PG E2, 24 h, antisera C8) is listed as “increased amounts”. For the same molecule, in experiment [10], the “effect on APP synthesis, shorter treatment” value is reported as “did not reliably increase”. Besides, the “effect on APP holoprotein” value in [7] (PG E2 0.1 μM) is recorded as “did not significantly alter; also recorded: not 0.1 μM PG E2”; in [7] (PG E2 1, 10 or 100 μM, 24 h) it was “stimulated increases”. Moreover, the “cellular APP holoprotein, of untreated control cells” value came out at 1.4 fold in [7] (PG E2 1 μM, 24 h); 1.9 fold in experiment [7] (PG E2 10 μM, 24 h); 2.3 fold in experiment [7] (PG E2 100 μM, 24 h). For the same molecule, the “KPI-containing APP isoforms” value in [7] (PG E2 treatment, antiserum R98) is “increases”.

For the molecule `CC(C)OC1=C(c2ccc(S(C)(=O)=O)cc2)C(C)(C)OC1=O` [DFP, 5,5-dimethyl-3-isopropyloxy-4-(4′-methylsulfonylphenyl)-2(5H)-furanone], in experiment [11], the APPs secretion result was “promotes”. The “secretion of soluble APPs” value in [9] (setting [15]) is “increases”. Further, in experiment [12], the “levels of amyloidogenic APP holoprotein” value is listed as “decreases”. Further, in experiment [7] (setting [15]), the “levels of cellular APP holoprotein” value is “decreases”.

Take `CC(N)Cc1ccc(Cl)cc1` (centres unmarked) [PCA, para-chloroamphetamine]: in experiment [13], the “serotonin release in the striatum” value is “compromised”. Besides, in experiment [14], the “KPI-containing APP isoforms in brain tissue” value is reported as “increased” and the “brain APP holoprotein levels” value is recorded as “increased; also recorded: significant increases”.
